Laboratory results reported in US7192962B2, “Xanthine phosphodiesterase V inhibitor polymorphs” (Schering Corporation, priority 2002, dated 2007).
In brackets after ≈: the same amount, converted by molar mass.

How the values were obtained:
[1] = Water solubility of the polymorphs; format: physicochemical
PDE V isoenzyme = PDE V isoenzyme (Homo sapiens, UniProt O76074); experiment: PDE V isoenzyme inhibition; format: biochemical; conditions: concentration required to provide 50% inhibition of PDE V isoenzyme
Description: Forms 1 and 2 of Compound 13 are each useful for inhibiting PDE V isoenzymes. Their isoenzyme activities (potencies) and isoenzyme selectivities can be measured by the PDE V IC50 value, which is the concentration (in nM) of compound required to provide 50% inhibition of PDE V isoenzyme. […] Similarly, an IC50 value may be obtained for other PDE isoenzymes, such as the PDE VI isoenzyme. Isoenzyme selectivity in this respect may be defined as the activity of a PDE inhibitor compound for a particular PDE isoenzyme as opposed to another PDE isoenzyme, for example, the activity of a compound to inhibit a PDE V isoenzyme compared to the activity of the same compound to inhibit a PDE VI isoenzyme.

[2] = Thermodynamic stability of the polymorphs; format: physicochemical; conditions: at process temperatures
Protocol: The two polymorphs also further differ in their water solubilities (Form 1: about 50 μg/mL vs. Form 2: about 30 μg/mL). […] Form 1 can equilibrate to Form 2 when slurried in one of the Form 2 crystallizing solvents (e.g., alcohol, nitrile, ester, etc.). For example, when a mixture of Form 1 of Compound 13 and Form 2 of Compound 13 is suspended in an organic crystallizing solvent (e.g., ethyl acetate, isopropanol, acetonitrile, and the like), and stored for an extended period of time (e.g., greater than or equal to about 10 hours), the Form 1 component of the mixture will convert to Form 2 of Compound 13.

solubility [1] [µg/mL]	IC50 (PDE V isoenzyme) [nM]	water solubility [1]	Compound	thermodynamic stability [2]
~50 (≈ 95.7 µM)	2 to 3		CCn1c(=O)c2c(nc(N[C@@H]3CCC[C@H]3O)n2Cc2ccc(OC)c(Br)c2)n(CCO)c1=O [Form 1 of Compound 13, 1-ethyl-3,7-dihydro-8-[(1R,2R) -(hydroxycyclopentyl)amino]-3-(2-hydroxyethyl)-7-[(3-bromo-4-methoxyphenyl)methyl]-1H-Purine-2,6-dione]	
		about 30 μg/mL	CCn1c(=O)c2c(nc(N[C@@H]3CCC[C@H]3O)n2Cc2ccc(OC)c(Br)c2)n(CCO)c1=O [Form 2 of Compound 13, 1-ethyl-3,7-dihydro-8-[(1R,2R) -(hydroxycyclopentyl)amino]-3-(2-hydroxyethyl)-7-[(3-bromo-4-methoxyphenyl)methyl]-1H-Purine-2,6-dione]	more thermodynamically stable than Form 1 of Compound 13
